In patent US6368788B1 (priority 1987, dated 2002):

Key:
[1] = Wound healing; design: species or system human; details: in vivo
Description: L-Glu-L-Trp was administered to 37 patients with wounds of various origins, types and localizations. Patients in the control group (24) received conventional treatments. L-Glu-L-Trp was administered daily im (or topically) on each of 10 consecutive days. The im dose was 100 μg.

[2] = Complications of pregnancy (Protocol C); design: species or system human; details: in vivo
Description: L-Glu-L-Trp was administered to 34 pregnant women and 27 pregnant women receiving conventional treatment served as a control group. […] Signs of clinical improvement were resolution of weakness and dizziness, increased appetite, and the normalization of the immunological and hematological indices.

[3] = Dental caries: toothpaste containing L-Glu-L-Trp; type: in vivo, human
Description: The use of dental toothpaste containing L-Glu-L-Trp will have the secondary effect of reducing incidence and severity of gingival disease. Patients with odontogenic infections and periapical granulomas can be treated with 100 μg of L-Glu-L-Trp instilled into the foramen at the base of the tooth, or alternatively, L-Glu-L-Trp can be compounded in a filling paste which is packed into the base of the tooth.

[4] = Chronic prostatitis; type: in vivo, human
Description: Thirty four patients (aged 22 to 45 years) with chronic prostatitis were entered into Group 1 of this trial during the acute phase of their disease. Diagnosis was based on medical history, and physical examination of the prostate (palpated through the rectum). Laboratory testing included microscopic examination of prostate gland secretions, spermography and urinalysis. All patients had previously received full courses of unsuccessful therapy with antibacterial agents, and additional individualized therapy including uroantiseptics, spasmolytic, ganglion blockers, novocain paraprostate and presacral blocks, ultrasound, and prostate gland massage. Success of any individualized therapy was only partial and short-term. […]
Peripheral blood samples were collected for laboratory testing 10 days after the last injection of L-Glu-L-Trp. […]

[5] = After L-Glu-L-Trp, pre-treatment value Decreased (n = 14)
[6] = Group 1, After L-Glu-L-Trp, 10 days after the last injection

L-Glu-L-Trp
Clinical outcome [1]: accelerated wound healing | Clinical outcome [2]: Decreased fetal hypoxia | Clinical outcome [3]: reduction of caries | IgG ([4]; After L-Glu-L-Trp, pre-treatment value Decreased (n = 2)): 7.8 ± 1.1 g/L | Phagocytes (% of PBL) ([4]; After L-Glu-L-Trp, pre-treatment value Decreased (n = 5)): 36.6 ± 8.5 % of PBL | Imm. Cmplx. ([4]; After L-Glu-L-Trp, pre-treatment value Decreased (n = 8)): 0.07 ± 0.01 units | B-Lymphocytes ([4]; After L-Glu-L-Trp, pre-treatment value Decreased (n = 10)): 26.0 ± 2.9 | Complement (CH50) [4, 5]: 34.2 ± 0.9 | T-Lymphocytes (%) [4, 5]: 37.9 ± 2.2% | IgM ([4]; After L-Glu-L-Trp, pre-treatment value Increased (n = 1)): 3.44 g/L | T-Lymphocytes (%) ([4]; After L-Glu-L-Trp, pre-treatment value Increased (n = 2)): 40.0 ± 15.5% | IgG ([4]; After L-Glu-L-Trp, pre-treatment value Increased (n = 6)): 14.7 ± 1.4 g/L | Complement (CH50) ([4]; After L-Glu-L-Trp, pre-treatment value Increased (n = 7)): 30.7 ± 0.9 | B-Lymphocytes ([4]; After L-Glu-L-Trp, pre-treatment value Increased (n = 8)): 24.8 ± 2.9 | Imm. Cmplx. ([4]; After L-Glu-L-Trp, pre-treatment value Increased (n = 19)): 0.08 ± 0.01 units | Phagocytes (% of PBL) ([4]; After L-Glu-L-Trp, pre-treatment value Increased (n = 26)): 37.7 ± 3.9 % of PBL | Phagocytes (% of PBL) ([4]; After L-Glu-L-Trp, pre-treatment value Normal (n = 3)): 58.6 ± 18 % of PBL | Imm. Cmplx. ([4]; After L-Glu-L-Trp, pre-treatment value Normal (n = 7)): 0.08 ± 0.01 units | Complement (CH50) ([4]; After L-Glu-L-Trp, pre-treatment value Normal (n = 13)): 29.3 ± 0.9 | B-Lymphocytes ([4]; After L-Glu-L-Trp, pre-treatment value Normal (n = 16)): 29.2 ± 2.2 | T-Lymphocytes (%) ([4]; After L-Glu-L-Trp, pre-treatment value Normal (n = 18)): 50.0 ± 3.6% | IgG ([4]; After L-Glu-L-Trp, pre-treatment value Normal (n = 26)): 12.5 ± 0.7 g/L | IgM ([4]; After L-Glu-L-Trp, pre-treatment value Normal (n = 33)): 2.08 ± 0.12 g/L | IgA ([4]; After L-Glu-L-Trp, pre-treatment value Normal (n = 34)): 2.2 ± 0.12 g/L | “Unsatisfactory” results ([4]; Group 1): No “unsatisfactory” results were recorded | B-Lymphocytes: % of PBL [4, 6]: 27.2 ± 1.4 % of PBL | B-Lymphocytes: No. [4, 6]: 0.54 ± 0.1 10^9/L | Complement (CH50) [4, 6]: 29.4 ± 0.5 | IgA [4, 6]: 2.2 ± 0.1 g/L | IgG [4, 6]: 12.5 ± 0.6 g/L | IgM [4, 6]: 2.1 ± 0.1 g/L | Immune Complexes [4, 6]: 0.80 ± 0.004 units | Phagocytes: % PBL [4, 6]: 39.4 ± 3.5 % PBL | T-Lymphocytes: % of Lym [4, 6]: 44.4 ± 2.3 % of Lym | T-Lymphocytes: No. [4, 6]: 0.88 ± 0.1 10^9/L
